Results published in US11724992B2 (Novartis AG, priority 2017, dated 2023).
pIC50: −log10 of the molar value.

System: IL-1β production in PMA-differentiated THP-1 cells
Assay: IL-1β production in PMA-differentiated THP-1 cells stimulated with gramicidin (hTHP-1 assay, 2% fetal bovine serum; Procedures 1-3)
Assay type: cell-based, human
Conditions: hTHP-1 assay containing 2% fetal bovine serum; class symbols; read-out: hTHP-1 IC50 (Average IC50 of compounds in hTHP-1 assay)
How it was run: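 Readout is HTRF of IL-1β in cell-free supernatant after 2 h gramicidin (5 μM) challenge. Cells: THP-1 differentiated with PMA 20 ng/ml for 16-18 h, plated 50,000/well in 2% FBS RPMI, exposed to compound 1 h beforehand at final 100–0.0017 μM, DMSO 0.37%.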

**Q.** `CC(C)(O)c1ccc(S(N)(=O)=NC(=O)Nc2c3c(cc4c2CCC4)CCC3)cn1` (single isomer, unassigned) [Example 320, (R) or (S)-N′-((1,2,3,5,6,7-hexahydro-s-indacen-4-yl)carbamoyl)-6-(2-hydroxypropan-2-yl)pyridine-3-sulfonimidamide] was tested. Which pIC50 did it give?
**A.** Its pIC50 is 6.70 to 7.40.

**Q.** `CC1CCc2c1cc1c(c2NC(=O)N=S(N)(=O)c2cnc(C(C)(C)O)s2)CCC1` (single isomer, unassigned) [Example 321, (S,S) or (S,R)-2-(2-hydroxypropan-2-yl)-N′-((1-methyl-1,2,3,5,6,7-hexahydro-s-indacen-4-yl)carbamoyl)thiazole-5-sulfonimidamide (from Example 291)] was tested. Which pIC50 did it give?
**A.** The pIC50 was 5.30 to 6.00.

**Q.** `CC1CCc2c1cc1c(c2NC(=O)N=S(N)(=O)c2cnc(C(C)(C)O)s2)CCC1` (single isomer, unassigned) [Example 322, (S,R) or (S,S)-2-(2-hydroxypropan-2-yl)-N′-((1-methyl-1,2,3,5,6,7-hexahydro-s-indacen-4-yl)carbamoyl)thiazole-5-sulfonimidamide (from Example 291)] was tested. Which pIC50 did it give?
**A.** Its pIC50 is 6.00 to 6.70.

**Q.** `CC1CCc2c1cc1c(c2NC(=O)N=S(N)(=O)c2cnc(C(C)(C)O)s2)CCC1` (single isomer, unassigned) [Example 323, (R,R) or (R,S)-2-(2-hydroxypropan-2-yl)-N′-((1-methyl-1,2,3,5,6,7-hexahydro-s-indacen-4-yl)carbamoyl)thiazole-5-sulfonimidamide (from Example 291)] was tested. Which pIC50 did it give?
**A.** Its pIC50 is 6.70 to 7.40.

**Q.** With `CC1CCc2c1cc1c(c2NC(=O)N=S(N)(=O)c2cnc(C(C)(C)O)s2)CCC1` (single isomer, unassigned) [Example 324, (R,S) or (R,R)-2-(2-hydroxypropan-2-yl)-N′-((1-methyl-1,2,3,5,6,7-hexahydro-s-indacen-4-yl)carbamoyl)thiazole-5-sulfonimidamide (from Example 291)] as the compound, how does the pIC50 read?
**A.** The pIC50 was 7.40 to 8.10.

**Q.** With `CC1CCc2cc3c(c(NC(=O)N=S(N)(=O)c4cnc(C(C)(C)O)s4)c21)CCC3` (single isomer, unassigned) [Example 331, (S,S) or (S,R)-2-(2-hydroxypropan-2-yl)-N′-((3-methyl-1,2,3,5,6,7-hexahydro-s-indacen-4-yl)carbamoyl)thiazole-5-sulfonimidamide] as the compound, how does the pIC50 read?
**A.** The pIC50 was 4.52 to 5.30.

**Q.** `CC1CCc2cc3c(c(NC(=O)N=S(N)(=O)c4cnc(C(C)(C)O)s4)c21)CCC3` (single isomer, unassigned) [Example 332, (R,R) or (R,S)-2-(2-hydroxypropan-2-yl)-N′-((3-methyl-1,2,3,5,6,7-hexahydro-s-indacen-4-yl)carbamoyl)thiazole-5-sulfonimidamide] was tested. Which pIC50 did it give?
**A.** The pIC50 was 6.00 to 6.70.

**Q.** With `CC1CCc2cc3c(c(NC(=O)N=S(N)(=O)c4cnc(C(C)(C)O)s4)c21)CCC3` (single isomer, unassigned) [Example 333, (S,R) or (S,S)-2-(2-hydroxypropan-2-yl)-N′-((3-methyl-1,2,3,5,6,7-hexahydro-s-indacen-4-yl)carbamoyl)thiazole-5-sulfonimidamide] as the compound, how does the pIC50 read?
**A.** Its pIC50 is 5.30 to 6.00.

**Q.** How did the pIC50 turn out when `CC1CCc2cc3c(c(NC(=O)N=S(N)(=O)c4cnc(C(C)(C)O)s4)c21)CCC3` (single isomer, unassigned) [Example 334, (R,S) or (R,R)-2-(2-hydroxypropan-2-yl)-N′-((3-methyl-1,2,3,5,6,7-hexahydro-s-indacen-4-yl)carbamoyl)thiazole-5-sulfonimidamide] was run?
**A.** The pIC50 was 7.40 to 8.10.

**Q.** How did the pIC50 turn out when `CC(C)(O)c1ncc(S(N)(=O)=NC(=O)Nc2c3c(cc4c2CCC4=O)CCC3)s1` (single isomer, unassigned) [Example 335, (S) or (R)-2-(2-Hydroxypropan-2-yl)-N′-((1-oxo-1,2,3,5,6,7-hexahydro-s-indacen-4-yl)carbamoyl)thiazole-5-sulfonimidamide from Example 293] was run?
**A.** The pIC50 was 5.30 to 6.00.

**Q.** `CC(C)(O)c1ncc(S(N)(=O)=NC(=O)Nc2c3c(cc4c2CCC4=O)CCC3)s1` (single isomer, unassigned) [Example 336, (R) or (S)-2-(2-Hydroxypropan-2-yl)-N′-((1-oxo-1,2,3,5,6,7-hexahydro-s-indacen-4-yl)carbamoyl)thiazole-5-sulfonimidamide from Example 293] was tested. Which pIC50 did it give?
**A.** The pIC50 was 6.00 to 6.70.

**Q.** How did the pIC50 turn out when `CC(C)(O)c1csc(S(N)(=O)=NC(=O)Nc2c3c(cc4c2CC4)CCC3)n1` (single isomer, unassigned) [Example 341, (R) or (S)-4-(2-hydroxypropan-2-yl)-N′-((2,4,5,6-tetrahydro-1H-cyclobuta[f]inden-3-yl)carbamoyl)thiazole-2-sulfonimidamide] was run?
**A.** The pIC50 was > 8.10.

**Q.** With `CC(C)(O)c1csc(S(N)(=O)=NC(=O)Nc2c3c(cc4c2CC4)CCC3)n1` (single isomer, unassigned) [Example 342, (R) or (S)-4-(2-hydroxypropan-2-yl)-N′-((2,4,5,6-tetrahydro-1H-cyclobuta[f]inden-3-yl)carbamoyl)thiazole-2-sulfonimidamide] as the compound, how does the pIC50 read?
**A.** Its pIC50 is 6.00 to 6.70.

**Q.** How did the pIC50 turn out when `CC(C)(O)c1ncc(S(N)(=O)=NC(=O)Nc2c3c(cc4c2OCC4)CCC3)s1` (single isomer, unassigned) [Example 343, (R) or (S)-2-(2-hydroxypropan-2-yl)-N′-((3,5,6,7-tetrahydro-2H-indeno[5,6-b]furan-8-yl)carbamoyl)thiazole-5-sulfonimidamide] was run?
**A.** Its pIC50 is 6.70 to 7.40.

**Q.** How did the pIC50 turn out when `CC(C)(O)c1ncc(S(N)(=O)=NC(=O)Nc2c3c(cc4c2OCC4)CCC3)s1` (single isomer, unassigned) [Example 344, (R) or (S)-2-(2-hydroxypropan-2-yl)-N′-((3,5,6,7-tetrahydro-2H-indeno[5,6-b]furan-8-yl)carbamoyl)thiazole-5-sulfonimidamide] was run?
**A.** The pIC50 was 5.30 to 6.00.

**Q.** `Cc1nc(C(C)(C)O)ccc1S(N)(=O)=NC(=O)Nc1c2c(cc3c1CCC3)CCC2` (single isomer, unassigned) [Example 345, (R) or (S)-N′-((1,2,3,5,6,7-hexahydro-s-indacen-4-yl)carbamoyl)-6-(2-hydroxypropan-2-yl)-2-methylpyridine-3-sulfonimidamide] was tested. Which pIC50 did it give?
**A.** Its pIC50 is 6.00 to 6.70.

**Q.** With `Cc1nc(C(C)(C)O)ccc1S(N)(=O)=NC(=O)Nc1c2c(cc3c1CCC3)CCC2` (single isomer, unassigned) [Example 346, (R) or (S)-N′-((1,2,3,5,6,7-hexahydro-s-indacen-4-yl)carbamoyl)-6-(2-hydroxypropan-2-yl)-2-methylpyridine-3-sulfonimidamide] as the compound, how does the pIC50 read?
**A.** The pIC50 was 4.52 to 5.30.

**Q.** `CC(C)(O)c1cnc(S(N)(=O)=NC(=O)Nc2c3c(cc4c2CCO4)CCC3)s1` (single isomer, unassigned) [Example 347, (R) or (S)-5-(2-hydroxypropan-2-yl)-N′-((3,5,6,7-tetrahydro-2H-indeno[5,6-b]furan-4-yl)carbamoyl)thiazole-2-sulfonimidamide] was tested. Which pIC50 did it give?
**A.** Its pIC50 is 7.40 to 8.10.

**Q.** With `CC(C)(O)c1cnc(S(N)(=O)=NC(=O)Nc2c3c(cc4c2CCO4)CCC3)s1` (single isomer, unassigned) [Example 348, (S) or (R)-5-(2-hydroxypropan-2-yl)-N′-((3,5,6,7-tetrahydro-2H-indeno[5,6-b]furan-4-yl)carbamoyl)thiazole-2-sulfonimidamide] as the compound, how does the pIC50 read?
**A.** The pIC50 was 5.30 to 6.00.

**Q.** `CC(C)(O)c1cnc(S(N)(=O)=NC(=O)Nc2c3c(cc4c2OCC4)CCC3)s1` (single isomer, unassigned) [Example 349, (S) or (R)-5-(2-hydroxypropan-2-yl)-N′-((3,5,6,7-tetrahydro-2H-indeno[5,6-b]furan-8-yl)carbamoyl)thiazole-2-sulfonimidamide] was tested. Which pIC50 did it give?
**A.** Its pIC50 is 5.30 to 6.00.

**Q.** How did the pIC50 turn out when `CC(C)(O)c1cnc(S(N)(=O)=NC(=O)Nc2c3c(cc4c2OCC4)CCC3)s1` (single isomer, unassigned) [Example 350, (R) or (S)-5-(2-hydroxypropan-2-yl)-N′-((3,5,6,7-tetrahydro-2H-indeno[5,6-b]furan-8-yl)carbamoyl)thiazole-2-sulfonimidamide] was run?
**A.** Its pIC50 is 6.70 to 7.40.

**Q.** `CC(C)(O)c1cnc(S(N)(=O)=NC(=O)Nc2c3c(c(Br)c4c2CCC4)CCC3)s1` (single isomer, unassigned) [Example 351, (S) or (R)-N′-((8-bromo-1,2,3,5,6,7-hexahydro-s-indacen-4-yl)carbamoyl)-5-(2-hydroxypropan-2-yl)thiazole-2-sulfonimidamide] was tested. Which pIC50 did it give?
**A.** Its pIC50 is 6.00 to 6.70.

**Q.** `CC(C)(O)c1cnc(S(N)(=O)=NC(=O)Nc2c3c(c(Br)c4c2CCC4)CCC3)s1` (single isomer, unassigned) [Example 352, (R) or (S)-N′-((8-bromo-1,2,3,5,6,7-hexahydro-s-indacen-4-yl)carbamoyl)-5-(2-hydroxypropan-2-yl)thiazole-2-sulfonimidamide] was tested. Which pIC50 did it give?
**A.** The pIC50 was 6.70 to 7.40.

**Q.** How did the pIC50 turn out when `CC(C)(O)c1csc(S(N)(=O)=NC(=O)Nc2c3c(cc4c2OCC4)CCC3)n1` (single isomer, unassigned) [Example 353, (S) or (R)-4-(2-hydroxypropan-2-yl)-N′-((3,5,6,7-tetrahydro-2H-indeno[5,6-b]furan-8-yl)carbamoyl)thiazole-2-sulfonimidamide] was run?
**A.** Its pIC50 is 5.30 to 6.00.

**Q.** With `CC(C)(O)c1csc(S(N)(=O)=NC(=O)Nc2c3c(cc4c2OCC4)CCC3)n1` (single isomer, unassigned) [Example 354, (R) or (S)-4-(2-hydroxypropan-2-yl)-N′-((3,5,6,7-tetrahydro-2H-indeno[5,6-b]furan-8-yl)carbamoyl)thiazole-2-sulfonimidamide] as the compound, how does the pIC50 read?
**A.** The pIC50 was 7.40 to 8.10.

**Q.** `CC(C)(O)c1ncc(S(N)(=O)=NC(=O)Nc2c3c(cc4c2CC4)CC3)s1` (single isomer, unassigned) [Example 355, (R) or (S)-2-(2-hydroxypropan-2-yl)-N′-(tricyclo[6.2.0.03,6]deca-1,3(6),7-trien-2-ylcarbamoyl)thiazole-5-sulfonimidamide] was tested. Which pIC50 did it give?
**A.** The pIC50 was > 8.10.

**Q.** How did the pIC50 turn out when `CC(C)(O)c1ncc(S(N)(=O)=NC(=O)Nc2c3c(cc4c2CC4)CC3)s1` (single isomer, unassigned) [Example 356, (S) or (R)-2-(2-hydroxypropan-2-yl)-N′-(tricyclo[6.2.0.03,6]deca-1,3(6),7-trien-2-ylcarbamoyl)thiazole-5-sulfonimidamide] was run?
**A.** The pIC50 was 6.00 to 6.70.
